Source: article PMC4955742 (Molecular bioSystems, 2016)
Where two headings read alike, the source gives them in different places.

What was measured:
Test in all cases: intrinsic tryptophan fluorescence quenching
Format in all cases: binding
HucR-H51F [1] = target: T1, HucR-H51F (Deinococcus radiodurans, UniProt Q9RV71, H51F)
[2] = target: T2, HucR (hypothetical uricase regulator), HucR-WT (Deinococcus radiodurans, UniProt Q9RV71)
T2 sequence (Q9RV71 1-181): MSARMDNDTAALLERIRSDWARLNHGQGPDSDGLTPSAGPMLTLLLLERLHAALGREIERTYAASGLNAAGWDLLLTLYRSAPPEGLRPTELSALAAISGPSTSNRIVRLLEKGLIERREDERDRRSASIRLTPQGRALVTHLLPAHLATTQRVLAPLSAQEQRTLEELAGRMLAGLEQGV

HucR-E48Q [3] = target: T3, HucR-E48Q (Deinococcus radiodurans, UniProt Q9RV71, E48Q)
HucR-E48Q [4] = target: T3, HucR-E48Q; remark: listed apart in the source
[5] = target: T2, HucR (hypothetical uricase regulator), HucR-WT; remark: listed apart in the source
HucR-H51F [6] = target: T1, HucR-H51F; remark: listed apart in the source

Row | SMILES | Kd (HucR-H51F [1]) [µM] | Kd [2] [µM] | Kd (HucR-E48Q [3]) [µM] | Kd (HucR-E48Q [4]) [µM] | Kd [5] [µM] | Kd (HucR-H51F [6]) [µM]
1 | O=c1[nH]c(=O)c2[nH]c(=O)[nH]c2[nH]1 [urate] | 14.7 ± 1.2 | 11.4 ± 2.9 | 2.2 ± 0.8 | – | – | –
2 | O=c1[nH]c(=O)c2[nH]cnc2[nH]1 [xanthine] | – | – | – | ~17 | ~17 | ~17
